Measured values from the NIST ThermoML archive (doi:10.1016/j.tca.2015.05.023).
± gives the expanded uncertainty stated by the source.

What was measured:
[1] = Crystal; DTA
[2] = Molar enthalpy of transition or fusion; details: Crystal; DSC

## O=[N+]([O-])[O-].[Na+] [sodium nitrate]
[1]
  Triple point temperature: 581.15 ± 1 K
[2]
  Molar enthalpy of transition or fusion: 3.84 ± 0.122 kcal/mol
